As usually defined, the IC50 is the concentration at which inhibition is half-maximal.

Molecules are shown by their SMILES.

The subject of this test is HIV in the HTLV-1 transformed cell line MT-4. The test can be described thus: organism not typed. It is filed as cell-based. The following applies: MT4, 96 h, MT-4 cells; luciferase/cell titer glo readout after 96 hours; 10 point dose response. For orientation: In ATP-based viability assays light output follows the ATP content of the culture.

In the case of `COc1cccc(C(=O)N2Cc3c(C)c(-c4ccc(C)cc4)c([C@H](OC(C)(C)C)C(=O)O)c(C)c3C2)c1OC` [Example 284, (S)-2-(tert-butoxy)-2-(2-(2,3-dimethoxybenzoyl)-4,7-dimethyl-6-(p-tolyl)isoindolin-5-yl)acetic acid], it took 48 nM to reach half-maximal inhibition (IC50).
As to `Cc1c(F)cccc1C(=O)N1Cc2c(C)c(-c3cc(F)c4c(c3C)CCCO4)c([C@H](OC(C)(C)C)C(=O)O)c(C)c2C1` (atropisomer, axis not shown; (M)) [Example 141, (S)-2-(tert-butoxy)-2-((M)-2-(3-fluoro-2-methylbenzoyl)-6-(8-fluoro-5-methylchroman-6-yl)-4,7-dimethylisoindolin-5-yl)acetic acid], the IC50 worked out at 4 nM.
The same measure for `Cc1c(-c2c(C)c3c(c(C)c2[C@H](OC(C)(C)C)C(=O)O)CN(C(=O)N2CCC(F)(F)C2)C3)ccc2c1CCCO2` [Example 320, (2S)-2-(tert-butoxy)-2-(2-(3,3-difluoropyrrolidine-1-carbonyl)-4,7-dimethyl-6-(5-methylchroman-6-yl)isoindolin-5-yl)acetic acid]: 3 nM; for `Cc1ccc(-c2c(C)c3c(c(C)c2[C@H](OC(C)(C)C)C(=O)O)CN(C(=O)N[C@@H](C)C2CCCCC2)C3)cc1` [Example 99, (S)-2-(tert-butoxy)-2-(2-(((S)-1-cyclohexylethyl)carbamoyl)-4,7-dimethyl-6-(p-tolyl)isoindolin-5-yl)acetic acid]: 45 nM; for `Cc1ccc(-c2c(C)c3c(c(C)c2[C@H](OC(C)(C)C)C(=O)O)CN(C(=O)C2CCC2)C3)cc1` [Example 228, (S)-2-(tert-butoxy)-2-(2-(cyclobutanecarbonyl)-4,7-dimethyl-6-(p-tolyl)isoindolin-5-yl)acetic acid]: 13 nM.
`Cc1ccc(-c2c(C)c3c(c(C)c2[C@H](OC(C)(C)C)C(=O)O)CN(C(=O)N2CCCCC2)C3)cc1` [Example 7, (S)-2-(tert-butoxy)-2-(4,7-dimethyl-2-(piperidine-1-carbonyl)-6-(p-tolyl)isoindolin-5-yl)acetic acid] showed a half-maximal inhibitory concentration (IC50) of 4 nM.
As for `Cc1ccc(-c2c(C)c3c(c(C)c2[C@H](OC(C)(C)C)C(=O)O)CN(C(=O)c2cncc(C)c2)C3)cc1` [Example 236, (S)-2-(tert-butoxy)-2-(4,7-dimethyl-2-(5-methylnicotinoyl)-6-(p-tolyl)isoindolin-5-yl)acetic acid], half-maximal inhibition (IC50) required 5 nM.
Molecule `Cc1ccc(-c2c(C)c3c(c(C)c2[C@H](OC(C)(C)C)C(=O)O)CN(C(=O)N(C)C)C3)cc1` [Example 59, (2S)-2-(tert-butoxy)-2-[2-(dimethylcarbamoyl)-4,7-dimethyl-6-(4-methylphenyl)-2,3-dihydro-1H-isoindol-5-yl]acetic acid] came in with an IC50 of 279 nM.
The same measure for `Cc1ccc(-c2c(C)c3c(c(C)c2[C@H](OC(C)(C)C)C(=O)O)CN(C(=O)c2cccc(C)c2)C3)cc1` [Example 225, (S)-2-(tert-butoxy)-2-(4,7-dimethyl-2-(3-methylbenzoyl)-6-(p-tolyl)isoindolin-5-yl)acetic acid]: 5 nM.
As to `Cc1ccc(-c2c(C)c3c(c(C)c2[C@H](OC(C)(C)C)C(=O)O)CN(C(=O)N2CC[C@H](O)C2)C3)cc1` [Example 77, (2S)-2-(tert-butoxy)-2-{2-[(3S)-3-hydroxypyrrolidine-1-carbonyl]-4,7-dimethyl-6-(4-methylphenyl)-2,3-dihydro-1H-isoindol-5-yl}acetic acid], it took 160 nM to reach half-maximal inhibition (IC50).
The molecule `Cc1ccc(-c2c(C)c3c(c(C)c2[C@H](OC(C)(C)C)C(=O)O)CN(Cc2cccnc2)C3)cc1` [Example 41, (2S)-2-(tert-butoxy)-2-[4,7-dimethyl-6-(4-methylphenyl)-2-(pyridin-3-ylmethyl)-2,3-dihydro-1H-isoindol-5-yl]acetic acid] yielded a half-maximal inhibitory concentration (IC50) of 50 nM.
The same measure for `Cc1ccc(-c2c(C)c3c(c(C)c2[C@H](OC(C)(C)C)C(=O)O)CN(C(=O)OC(C)(C)C)C3)cc1` [Example 126, (S)-2-(tert-butoxy)-2-(2-(tert-butoxycarbonyl)-4,7-dimethyl-6-(p-tolyl)isoindolin-5-yl)acetic acid]: 13 nM; for `COCCN(C)C(=O)N1Cc2c(C)c(-c3ccc(C)cc3)c([C@H](OC(C)(C)C)C(=O)O)c(C)c2C1` [Example 62, (2S)-2-(tert-butoxy)-2-{2-[(2-methoxyethyl)(methyl)carbamoyl]-4,7-dimethyl-6-(4-methylphenyl)-2,3-dihydro-1H-isoindol-5-yl}acetic acid]: 44 nM; for `Cc1ccc(-c2c(C)c3c(c(C)c2[C@H](OC(C)(C)C)C(=O)O)CN(C(=O)N2CCC(C)(C)C2)C3)cc1` [Example 291, (S)-2-(tert-butoxy)-2-(2-(3,3-dimethylpyrrolidine-1-carbonyl)-4,7-dimethyl-6-(p-tolyl)isoindolin-5-yl)acetic acid]: 5 nM.
`COc1ccc(C)c(C(=O)N2Cc3c(C)c(-c4cc(F)c5c(c4C)CCCO5)c([C@H](OC(C)(C)C)C(=O)O)c(C)c3C2)c1` (atropisomer, axis not shown; (M)) [Example 160, (S)-2-(tert-butoxy)-2-(6-((M)-8-fluoro-5-methylchroman-6-yl)-2-(5-methoxy-2-methylbenzoyl)-4,7-dimethylisoindolin-5-yl)acetic acid] returned a concentration for half-maximal inhibition (IC50) of 4 nM.
Molecule `COc1ccc(C(=O)N2Cc3c(C)c(-c4cc(F)c5c(c4C)CCCO5)c([C@H](OC(C)(C)C)C(=O)O)c(C)c3C2)c(C)c1` (atropisomer, axis not shown; (M)) [Example 286, (S)-2-(tert-butoxy)-2-((M)-6-(8-fluoro-5-methylchroman-6-yl)-2-(4-methoxy-2-methylbenzoyl)-4,7-dimethylisoindolin-5-yl)acetic acid] showed an IC50 of 11 nM.
`Cc1ccc(-c2c(C)c3c(c(C)c2[C@H](OC(C)(C)C)C(=O)O)CN(C(=O)c2ccc(Cl)cc2)C3)cc1` [Example 270, (S)-2-(tert-butoxy)-2-(2-(4-chlorobenzoyl)-4,7-dimethyl-6-(p-tolyl)isoindolin-5-yl)acetic acid]: the midpoint of inhibition, the IC50, lay at 4 nM.
Turning to `Cc1ccc(-c2c(C)c3c(c(C)c2[C@H](OC(C)(C)C)C(=O)O)CN(C(=O)c2cncs2)C3)cc1` [Example 269, (S)-2-(tert-butoxy)-2-(4,7-dimethyl-2-(thiazole-5-carbonyl)-6-(p-tolyl)isoindolin-5-yl)acetic acid], half-maximal inhibition (IC50) required 116 nM.
As to `Cc1ccc(-c2c(C)c3c(c(C)c2[C@H](OC(C)(C)C)C(=O)O)CN(Cc2ccccc2F)C3)cc1` [Example 21, (S)-2-(tert-butoxy)-2-(2-(2-fluorobenzyl)-4,7-dimethyl-6-(p-tolyl)isoindolin-5-yl)acetic acid], the IC50 was 40 nM.
The same measure for `Cc1cc(C)cc(C(=O)N2Cc3c(C)c(-c4cc(F)c5c(c4C)CCCO5)c([C@H](OC(C)(C)C)C(=O)O)c(C)c3C2)c1` (atropisomer, axis not shown; (M)) [Example 191, (S)-2-(tert-butoxy)-2-((M)-2-(3,5-dimethylbenzoyl)-6-(8-fluoro-5-methylchroman-6-yl)-4,7-dimethylisoindolin-5-yl)acetic acid]: 2 nM.
The same measure for `Cc1ccc(-c2c(C)c3c(c(C)c2[C@H](OC(C)(C)C)C(=O)O)CN(C(=O)N2CCCC[C@@H]2C)C3)cc1` [Example 293, (S)-2-(tert-butoxy)-2-(4,7-dimethyl-2-((S)-2-methylpiperidine-1-carbonyl)-6-(p-tolyl)isoindolin-5-yl)acetic acid]: 4 nM; for `Cc1c(-c2c(C)c3c(c(C)c2[C@H](OC(C)(C)C)C(=O)O)CN(C(=O)N2CCC[C@@H]2C)C3)cc(F)c2c1CCCO2` (atropisomer, axis not shown; (M)) [Example 212, (S)-2-(tert-butoxy)-2-((M)-6-(8-fluoro-5-methylchroman-6-yl)-4,7-dimethyl-2-((S)-2-methylpyrrolidine-1-carbonyl)isoindolin-5-yl)acetic acid]: 2 nM.
In the case of `Cc1ccc(C)c(C(=O)N2Cc3c(C)c(-c4cc(F)c5c(c4C)CCCO5)c([C@H](OC(C)(C)C)C(=O)O)c(C)c3C2)c1` (atropisomer, axis not shown; (M)) [Example 157, (S)-2-(tert-butoxy)-2-(2-(2,5-dimethylbenzoyl)-6-((M)-8-fluoro-5-methylchroman-6-yl)-4,7-dimethylisoindolin-5-yl)acetic acid], the IC50 came to 3 nM.
For the molecule `Cc1c(-c2c(C)c3c(c(C)c2[C@H](OC(C)(C)C)C(=O)O)CN(C(=O)c2ccccn2)C3)cc(F)c2c1CCCO2` (atropisomer, axis not shown; (M)) [Example 184, (S)-2-(tert-butoxy)-2-((M)-6-(8-fluoro-5-methylchroman-6-yl)-4,7-dimethyl-2-picolinoylisoindolin-5-yl)acetic acid], the IC50 came to 2 nM.
The same measure for `Cc1ccc(-c2c(C)c3c(c(C)c2[C@H](OC(C)(C)C)C(=O)O)CN(Cc2ccc(Cl)cc2)C3)cc1` [Example 18, (S)-2-(tert-butoxy)-2-(2-(4-chlorobenzyl)-4,7-dimethyl-6-(p-tolyl)isoindolin-5-yl)acetic acid]: 75 nM; for `Cc1ccc(-c2c(C)c3c(c(C)c2[C@H](OC(C)(C)C)C(=O)O)CN(C(=O)c2cccnc2C)C3)cc1` [Example 259, (S)-2-(tert-butoxy)-2-(4,7-dimethyl-2-(2-methylnicotinoyl)-6-(p-tolyl)isoindolin-5-yl)acetic acid]: 20 nM.
The molecule `Cc1c(-c2c(C)c3c(c(C)c2[C@H](OC(C)(C)C)C(=O)O)CN(C(=O)c2cccc4sccc24)C3)cc(F)c2c1CCCO2` (atropisomer, axis not shown; (M)) [Example 151, (S)-2-((M)-2-(benzo[b]thiophene-4-carbonyl)-6-(8-fluoro-5-methylchroman-6-yl)-4,7-dimethylisoindolin-5-yl)-2-(tert-butoxy)acetic acid] displayed an IC50 of 5 nM.
The same measure for `Cc1ccc(-c2c(C)c3c(c(C)c2[C@H](OC(C)(C)C)C(=O)O)CN(Cc2ccc(F)c(F)c2)C3)cc1` [Example 53, (2S)-2-(tert-butoxy)-2-{2-[(3,4-difluorophenyl)methyl]-4,7-dimethyl-6-(4-methylphenyl)-2,3-dihydro-1H-isoindol-5-yl}acetic acid]: 51 nM.

Values taken from US10112899B2 (ViiV HEALTHCARE UK LIMITED, priority 2014, dated 2018).
